In patent US8980222B2, “Diagnostic use of endothelin ETB receptor agonists and ETA receptor antagonists in tumor imaging” (The Board of Trustees of the University of Illinois, priority 2004, dated 2015):
Where two headings read alike, the source gives them in different places. Non-standard residues stand in square brackets, D forms with d. Residues, ends and D or L forms follow the SMILES beside them.

Tests used:
tumor [1] = assay: Tumor blood flow with ETA receptor antagonists; conditions: in vivo
Procedure: A study using BMS182874, an ETA receptor antagonist, also was conducted.

breast tumor = assay: Breast tumor blood perfusion by Laser Doppler Flowmetry in MNU-induced mammary tumor rats; assay type: in vivo, rat; conditions: for Maximal increase in tumor perfusion (%): Laser Doppler Flowmetry, breast tumor-bearing rats
Procedure: MNU or saline treatments were carried out as intraperitoneal injections three months prior to the study. Rats were regularly palpated from four weeks after onset of the treatments. When the tumors reached an optimal size (i.e., 4-8 mm in diameter), the experiments were begun. Systemic hemodynamic and regional circulation parameters were determined at baseline, 30, 60, and 120 minutes after initiating ET-1 (50 ng/kg/min) infusion.
Blood perfusion to the mammary gland of the rats was measured using laser Doppler flowmetry as described in literature procedures (23, 24). The animals were shaved around the nipples. The skin surrounding the mammary glands was dissected out as a lambeau about 6 cm wide and 4 cm long. A standard model fiber optic probe was applied to the surface of the lambeau, and secured to the tissue by double stick tape. The lambeau was placed in a metal holder and taped down to prevent movement, then connected to a Periflux PF2b 4000 Laser Doppler Flowmetry (Perimed KB, Stockholm, Sweden). The time constant was set at 1.5 seconds and the bandwidth was set at 4 KHz.
A preclinical model of MNU-induced primary autochthonous mammary tumor was used in the following studies. This tumor model of breast cancer offers several advantages over other models (Rai et al., Cancer Chemother. Parmaacol., 51(1):21-8 (2003)). Virgin female Sprague Dawley rats were used for the study. At 48 days of age, rats received a single injection of N-methyl nitrosourea (MNU; 50 mg/kg, i.v.). Eighty percent of the animals developed tumors two months after MNU injection and 10% of total rats may die or loose weight due to MNU injection or develop a tumor after several months. Tumor appearance and location is monitored by manual mammary gland palpation and the tumor diameter is measured with a digital caliper. Rats with a tumor volume of 200-500 mm^3 were selected for the experiments.
FIG. 2 illustrates the effect of IRL-1620 on breast tumor perfusion (N=5/group). Breast tumor-bearing rats were anesthetized and mammary tumor perfusion was recorded using a Laser Doppler Flowmetry for three hours. A 15-minute stable baseline recording was obtained before the administration of saline or IRL-1620 1, 3, or 9 nmol/kg via the tail vein in a final volume of 0.2 ml. Tumor perfusion was recorded for three hours (*p<0.001 compared to vehicle-treated rats).
Animals received BQ 788 ([…]) or saline via tail vein 15 minutes before the administration of IRL-1620 (3 nmol/kg) and tumor perfusion was recorded for three hours (*p<0.001 compared to BQ 788-administered rats). Studies also were conducted to determine the effect of IRL-1620 on blood perfusion in normal mammary tissue.

tumor [2] = conditions: Sonveaux et al. 2004; cited from earlier work
ETA and ETB receptors = conditions: cited from earlier work

Question: With `Cc1noc(NS(=O)(=O)c2cccc3c(N(C)C)cccc23)c1C` [BMS182874] as the compound, how does the Tumor blood flow (tumor [1]) read?
Answer: Its Tumor blood flow is “increased the tumor blood flow”.

Question: With `CCCC[C@@H](NC(=O)[C@@H](Cc1cn(C(=O)OC)c2ccccc12)NC(=O)[C@H](CC(C)(C)C)NC(=O)N1[C@H](C)CCC[C@@H]1C)C(=O)O` [BQ788, N-cis-2,6-dimethylpiperidinocarbonyl-L-gamma-methylleucyl-D-1-methoxycarbonyltrptophanyl-D-Nle] as the compound, how does the “Effect of antagonist on IRL-1620 induced tumor blood perfusion” value (breast tumor; BQ 788 0.5 μg/kg 15 minutes before IRL-1620 3 nmol/kg) read?
Answer: Its value is “completely blocked”.

Question: And the “Effect of antagonist on ET-1 induced increase in tumor blood flow” value (breast tumor; ET-1 induced)?
Answer: The value was “completely blocked”.

Question: For `CC(C)C[C@@H]1NC(=O)[C@@H](C(C)C)NC(=O)[C@@H]2CCCN2C(=O)[C@@H](CC(=O)O)NC(=O)[C@@H](Cc2c[nH]c3ccccc23)NC1=O` [BQ123] (cyclo(L[dW][dD]P[dV])), which Tumor blood flow (tumor [2]) is on record?
Answer: The Tumor blood flow was “significantly improved”.

Question: Which results are given for `CC[C@H](C)[C@H](NC(=O)[C@H](CC(=O)O)NC(=O)[C@H](CC(C)C)NC(=O)[C@H](Cc1c[nH]cn1)NC(=O)[C@@H]1CSSC[C@H](N)C(=O)N[C@@H](CO)C(=O)N[C@H]2CSSC[C@H](NC(=O)[C@H](CCC(=O)O)NC(=O)[C@H](CCCCN)NC(=O)[C@H](CC(=O)O)NC(=O)[C@H](CCSC)NC(=O)[C@H](CC(C)C)NC(=O)[C@H](CO)NC(=O)[C@H](CO)NC2=O)C(=O)N[C@@H](C(C)C)C(=O)N[C@@H](Cc2ccc(O)cc2)C(=O)N[C@@H](Cc2ccccc2)C(=O)N1)C(=O)N[C@H](C(=O)N[C@@H](Cc1c[nH]c2ccccc12)C(=O)O)[C@@H](C)CC` [ET-1, Endothelin-1]?
Answer: Maximal increase in tumor perfusion (%) (breast tumor): 46.19%; Breast tumor perfusion after exogenous infusion (breast tumor; rat, in vivo): transient increase; Perfusion to major organs (breast tumor; rat, in vivo): without altering perfusion; Selectivity for ETB receptors than ETA receptors (ETA and ETB receptors): equal affinity

Question: What does the source list for “ET-3: ET agonist three times more selective for ETB receptors than ETA receptors”?
Answer: Maximal increase in tumor perfusion (%) (breast tumor): 47.99%; Selectivity for ETB receptors than ETA receptors (ETA and ETB receptors): three times more selective

Question: Which “Maximal increase in tumor perfusion (%)” value (breast tumor) does the source give for “[Ala^1, 3, 11, 15]-ET-1 (ASASSLMDKEAVYFAHLDIIW; Endothelin-1; UniProt P05305 53-73, looked up, variant C1A C3A C11A C15A) [4 Ala ET-1]” here?
Answer: Its value is 53.96%.

Question: And the “Selectivity for ETB receptors than ETA receptors” value (ETA and ETB receptors)?
Answer: The value was 1700 times.
